The values that follow come from patent US11208404B2 (PERENNA PHARMACEUTICALS, INC., priority 2017, dated 2021).

Assay [1] deals with T1, ALCAT1 (Homo sapiens (Human), UniProt Q6UWP7). Briefly: In vitro acyltransferase assay for ALCAT1 inhibitors. The class given is biochemical. To be noted: for inhibition at 1 µM / % inh @ 1 μM: 1 μM compound; for inhibition at 1 µM / inhibition at 10 µM / % inh @ 1 μM: in vitro enzymatic assay; for inhibition at 10 µM: 10 μM compound; for IC50: ALCAT1 enzyme activity. The gist of the method: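 Membrane fractions from Sf9 cells expressing human ALCAT1 incubated 30 min at room temperature with 100 µM MLCL or LPG and 25 µM [14C]acyl-CoA (or 100 µM NBD-CoA) in 50 mM Tris/HCl pH 7.0.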
Target sequence in this assay (Q6UWP7 whole entry): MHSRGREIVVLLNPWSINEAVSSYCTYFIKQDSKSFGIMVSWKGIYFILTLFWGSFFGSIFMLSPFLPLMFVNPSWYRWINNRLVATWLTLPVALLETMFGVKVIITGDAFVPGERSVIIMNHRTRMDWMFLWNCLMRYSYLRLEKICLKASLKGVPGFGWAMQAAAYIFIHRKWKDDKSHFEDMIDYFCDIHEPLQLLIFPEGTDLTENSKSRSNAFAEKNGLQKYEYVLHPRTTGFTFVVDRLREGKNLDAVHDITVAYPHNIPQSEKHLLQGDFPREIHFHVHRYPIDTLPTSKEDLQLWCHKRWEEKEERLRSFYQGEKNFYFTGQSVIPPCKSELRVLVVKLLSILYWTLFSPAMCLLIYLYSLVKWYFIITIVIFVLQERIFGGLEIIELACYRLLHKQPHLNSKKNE

Assay [2] concerns the target T1, ALCAT1. The assay can be described thus: Cell-based assay for ALCAT inhibitor compounds (H9C2 cells). As to conditions: H9c2, 3 μM compound; H9C2 vector cell line and H9C2 with stable overexpression of ALCAT1. How it is done: The assay was performed on the H9C2 vector cell line and H9C2 with stable overexpression of ALCAT1. Materials used in the protocol were CoA, LPG, compounds, chloroform, methanol, 0.9% KCl, 6-well-plates, 1.5 mL tubes, DMEM, FBS, P/S and PBS.
Cells were seeded in 6-well-plates, 8×10^5 cells/well, and cultured at 37° C. in 5% CO2 overnight.
Cells were washed once with ice-cold PBS, collected in ice-cold PBS and centrifuged at 5000 rpm for 5 min at 4° C. 200 μL of chloroform: methanol (2:1) was added to the cell pellet, which was vortexed to suspend the cells and incubated at RT for 1 hr.
40 μL of 0.9% KCl was added and the sample was vortexed before centrifugation at 10000 rpm for 5 min at RT. The aqueous phase (upper layer) was discarded and the organic phase (lower layer) was loaded to a TLC plate (10 cm×20 cm), 40 μL/sample.
The plates were developed in chloroform: methanol: water (65:25:4) for about 30 min and scanned using a Typhoon Scanner. The bands intensity was analysed using ImageJ and the inhibition activity of the tested compounds was calculated.
Compound inhibitors for ALCAT1 enzyme were analyzed by an in vitro cell-based assay as detailed above.
Target sequence in this assay (Q6UWP7 whole entry, species assumed): as the sequence (Q6UWP7 whole entry) above

Where [3] appears, read: read-out: IC50 values (upper bounds).
Setting [4] is: triplicates, GraphPad, read-out: IC50.

Like-named read-outs stand apart in the source and are kept apart here.

Consider `CCOc1ccc(Br)cc1C(=O)Nc1cccc(-c2nnc(-c3ccco3)o2)c1` [Compound 118, 5-Bromo-2-ethoxy-N-(3-(5-(furan-2-yl)-1,3,4-oxadiazol-2-yl)phenyl)benzamide], for which the inhibition at 1 µM against ALCAT1 [1] was determined as 95%. The inhibition at 10 µM against ALCAT1 [1] turned out to be 100%. Moreover, the half-inhibitory concentration (IC50) is below 100 nM at ALCAT1 [1] (setting [3]) and 31 nM on ALCAT1 [1] (setting [4]). This molecule also gave an inhibition at 3 µM on ALCAT1 [2] of 9%.
For the molecule `COc1c(Br)cc(Br)cc1C(=O)Nc1cccc(-c2nnc(-c3ccco3)o2)c1` [Compound 168, 3,5-Dibromo-N-(3-(5-(furan-2-yl)-1,3,4-oxadiazol-2-yl)phenyl)-2-methoxybenzamide], at ALCAT1 [1], the inhibition at 1 µM is 100% and the inhibition at 10 µM was found to be 100%. Also, on ALCAT1 [1] (setting [4]), the concentration for half-maximal inhibition (IC50) turned out to be 48 nM. Moreover, on ALCAT1 [2], the inhibition at 3 µM amounted to 27%.
Regarding `COc1ccc(Br)cc1C(=O)Nc1cc(-c2nnc(-c3ccco3)o2)ccc1F` [Compound 183, 5-Bromo-N-(2-fluoro-5-(5-(furan-2-yl)-1,3,4-oxadiazol-2-yl)phenyl)-2-methoxybenzamide], at ALCAT1 [1], the “% inh @ 1 μM” value was 100/100% and the inhibition at 1 µM came out at 100%. Further, at ALCAT1 [1] (setting [3]), the half-inhibitory concentration (IC50) is below 100 nM. Besides, the concentration for half-maximal inhibition (IC50) on ALCAT1 [1] (setting [4]) was 24 nM. The same molecule displayed an inhibition at 3 µM at ALCAT1 [2] of 62%.
For `COc1ccc(Cl)cc1C(=O)Nc1cc(-c2nnc(-c3ccco3)o2)ccc1F` [Compound 184, 5-Chloro-N-(2-fluoro-5-(5-(furan-2-yl)-1,3,4-oxadiazol-2-yl)phenyl)-2-methoxybenzamide], in that order: 100/100%, 100%, below 100 nM, 18 nM and 57%.
Turning to `CCCOc1ccc(C)cc1C(=O)Nc1cc(-c2nnc(-c3ccco3)o2)ccc1F` [Compound 208, N-(2-Fluoro-5-(5-(furan-2-yl)-1,3,4-oxadiazol-2-yl)phenyl)-5-methyl-2-propoxybenzamide], on ALCAT1 [1], the “% inh @ 1 μM” value was found to be 98% and at 1 µM the inhibition was 97%. Also, the concentration for half-maximal inhibition (IC50) on ALCAT1 [1] (setting [4]) turned out to be 76 nM. At ALCAT1 [2], the inhibition at 3 µM was found to be 36%.
In the case of `CCCOc1ccc(Cl)cc1C(=O)Nc1cc(-c2nnc(-c3ccco3)o2)ccc1F` [Compound 209, 5-Chloro-N-(2-fluoro-5-(5-(furan-2-yl)-1,3,4-oxadiazol-2-yl)phenyl)-2-propoxybenzamide], on ALCAT1 [1], 1 µM produced 100% inhibition. Besides, the inhibition at 10 µM against ALCAT1 [1] turned out to be 100%. The results for the half-inhibitory concentration (IC50) on ALCAT1 [1] (setting [3]) and on ALCAT1 [1] (setting [4]) were below 100 nM and 25 nM, respectively. Besides, 3 µM produced 37% inhibition on ALCAT1 [2].
On ALCAT1 [1], `CCCOc1ccc(F)cc1C(=O)Nc1cc(-c2nnc(-c3ccco3)o2)ccc1F` [Compound 210, 5-Fluoro-N-(2-fluoro-5-(5-(furan-2-yl)-1,3,4-oxadiazol-2-yl)phenyl)-2-propoxybenzamide] yielded an inhibition at 1 µM of 97% and an inhibition at 10 µM of 97%. Besides, the IC50 on ALCAT1 [1] (setting [4]) turned out to be 66 nM. The inhibition at 3 µM at ALCAT1 [2] stood at 24%.
As for `O=C(Nc1cccc(-c2nnc(-c3ccco3)o2)c1)c1cncc([N+](=O)[O-])c1` [Compound 345], at 1 µM the inhibition against ALCAT1 [1] was 24%.
Still for that read-out and setting: as for `O=C(Nc1cc(-c2nnc(-c3ccco3)o2)ccc1F)c1cc(Cl)ccc1Cl` [Compound 347], the figure is 94%.
`COc1ccc(Cl)cc1C(=O)Nc1cc(-c2nnc(-c3cnco3)o2)ccc1F` [Compound 364]: at ALCAT1 [1] (setting [4]), the IC50 worked out at 120 nM.
At ALCAT1 [1], `CC(C)Oc1ccc(Br)cc1C(=O)Nc1cccc(-c2nnc(-c3ccco3)o2)c1` [Compound 477] returned an inhibition at 1 µM of 63% and an inhibition at 10 µM of 68%.
For `CC(C)Oc1ccc(Cl)cc1C(=O)Nc1cccc(-c2nnc(-c3ccco3)o2)c1` [Compound 478], on ALCAT1 [1], the inhibition at 1 µM came to 57% and the inhibition at 10 µM was determined as 62%.
On to `COc1ccc(Cl)cc1NC(=O)c1cc(-c2nnc(-c3ccco3)o2)ccc1F` [Compound 480, N-(5-chloro-2-methoxyphenyl)-2-fluoro-5-(5-(furan-2-yl)-1,3,4-oxadiazol-2-yl)benzamide], for which 1 µM produced 96% inhibition against ALCAT1 [1].
